Values quoted from earlier work as cited in publication PMC12281572.
Several values for one entry are separate records, joined by “and”; a condition that tells them apart may be missing. Identical values can stand only once.

Experiment: FTIR, 4-fluorophenol as donor (the pK_BHX database, per the paper)
Settings: CCl4; 25 C
For O=COc1ccccc1, the “pK_BHX (log10 Kf of the 1:1 H-bond complex with 4-fluorophenol, by FTIR)” value is given as 0.35 log units. For O=CN1CCOCC1, the “pK_BHX (log10 Kf of the 1:1 H-bond complex with 4-fluorophenol, by FTIR)” value is listed as 1.93 log units. In the case of CCOC(=O)c1ccc([N+](=O)[O-])cc1, the “pK_BHX (log10 Kf of the 1:1 H-bond complex with 4-fluorophenol, by FTIR)” value is given as 0.5 log units and 0.16 log units. In the case of CCCCS(=O)CCCC, the “pK_BHX (log10 Kf of the 1:1 H-bond complex with 4-fluorophenol, by FTIR)” value is given as 2.65 log units. In the case of N#Cc1ccc(F)cc1, the “pK_BHX (log10 Kf of the 1:1 H-bond complex with 4-fluorophenol, by FTIR)” value is given as 0.72 log units. For COC(=O)N(C)C, the “pK_BHX (log10 Kf of the 1:1 H-bond complex with 4-fluorophenol, by FTIR)” value is listed as 1.8 log units. For c1ccc2c(c1)ccc1ccccc12, the “pK_BHX (log10 Kf of the 1:1 H-bond complex with 4-fluorophenol, by FTIR)” value is given as -0.53 log units. In the case of ClC1CCCCC1, the “pK_BHX (log10 Kf of the 1:1 H-bond complex with 4-fluorophenol, by FTIR)” value is listed as -0.27 log units. In the case of N#Cc1ccc(Br)cc1, the “pK_BHX (log10 Kf of the 1:1 H-bond complex with 4-fluorophenol, by FTIR)” value is given as 0.73 log units. In the case of CCCSC, the “pK_BHX (log10 Kf of the 1:1 H-bond complex with 4-fluorophenol, by FTIR)” value is listed as 0.16 log units. For COC(OC)OC, the “pK_BHX (log10 Kf of the 1:1 H-bond complex with 4-fluorophenol, by FTIR)” value is listed as 0.55 log units. For CCCCCCCCSC, the “pK_BHX (log10 Kf of the 1:1 H-bond complex with 4-fluorophenol, by FTIR)” value is given as 0.17 log units. For CCOC(=O)CC, the “pK_BHX (log10 Kf of the 1:1 H-bond complex with 4-fluorophenol, by FTIR)” value is given as 1.08 log units. For CCCCNC, the “pK_BHX (log10 Kf of the 1:1 H-bond complex with 4-fluorophenol, by FTIR)” value is given as 2.24 log units. In the case of CN=C(c1ccc([N+](=O)[O-])cc1)N(C)C, the “pK_BHX (log10 Kf of the 1:1 H-bond complex with 4-fluorophenol, by FTIR)” value is listed as 1.99 log units. In the case of CC(C)(C)[N+](=O)[O-], the “pK_BHX (log10 Kf of the 1:1 H-bond complex with 4-fluorophenol, by FTIR)” value is listed as 0.42 log units. In the case of CN(C)C(=O)N(c1ccccc1)c1ccccc1, the “pK_BHX (log10 Kf of the 1:1 H-bond complex with 4-fluorophenol, by FTIR)” value is given as 2.08 log units. For CN(C)C=NS(=O)(=O)c1ccccc1, the “pK_BHX (log10 Kf of the 1:1 H-bond complex with 4-fluorophenol, by FTIR)” value is given as 1.51 log units. In the case of NCCCCCCN, the “pK_BHX (log10 Kf of the 1:1 H-bond complex with 4-fluorophenol, by FTIR)” value is given as 2.21 log units. For CN(C)C=NC(=S)SCc1ccccc1, the “pK_BHX (log10 Kf of the 1:1 H-bond complex with 4-fluorophenol, by FTIR)” value is given as 1.1 log units. In the case of N#Cc1ccccc1, the “pK_BHX (log10 Kf of the 1:1 H-bond complex with 4-fluorophenol, by FTIR)” value is listed as 0.8 log units. For CC12CCC(CC1=S)C2(C)C (centres unmarked), the “pK_BHX (log10 Kf of the 1:1 H-bond complex with 4-fluorophenol, by FTIR)” value is listed as 0.34 log units. In the case of Oc1ccccc1, the “pK_BHX (log10 Kf of the 1:1 H-bond complex with 4-fluorophenol, by FTIR)” value is given as -0.07 log units. In the case of c1cnoc1, the “pK_BHX (log10 Kf of the 1:1 H-bond complex with 4-fluorophenol, by FTIR)” value is listed as 0.81 log units. In the case of c1ccc2nc3ccccc3cc2c1, the “pK_BHX (log10 Kf of the 1:1 H-bond complex with 4-fluorophenol, by FTIR)” value is given as 1.95 log units. In the case of c1cncnc1, the “pK_BHX (log10 Kf of the 1:1 H-bond complex with 4-fluorophenol, by FTIR)” value is listed as 1.07 log units. For Cc1ccncc1, the “pK_BHX (log10 Kf of the 1:1 H-bond complex with 4-fluorophenol, by FTIR)” value is given as 2.07 log units. In the case of O=C(C1CC1)C1CC1, the “pK_BHX (log10 Kf of the 1:1 H-bond complex with 4-fluorophenol, by FTIR)” value is listed as 1.36 log units. For CC1(C)CCCC(C)(C)N1, the “pK_BHX (log10 Kf of the 1:1 H-bond complex with 4-fluorophenol, by FTIR)” value is listed as 1.88 log units. In the case of COc1ccccc1C(C)=O, the “pK_BHX (log10 Kf of the 1:1 H-bond complex with 4-fluorophenol, by FTIR)” value is given as 1.34 log units. In the case of C=Cn1ccnc1, the “pK_BHX (log10 Kf of the 1:1 H-bond complex with 4-fluorophenol, by FTIR)” value is given as 2.35 log units. In the case of CC(C)N=CN(C)C, the “pK_BHX (log10 Kf of the 1:1 H-bond complex with 4-fluorophenol, by FTIR)” value is listed as 2.6 log units. In the case of CN(C)C(=O)c1ccccc1, the “pK_BHX (log10 Kf of the 1:1 H-bond complex with 4-fluorophenol, by FTIR)” value is listed as 2.23 log units. In the case of CC(=Nc1ccc(Cl)cc1)Nc1ccc(Cl)cc1, the “pK_BHX (log10 Kf of the 1:1 H-bond complex with 4-fluorophenol, by FTIR)” value is given as 1.07 log units. In the case of CC(C)CN(C(C)C)C(C)C, the “pK_BHX (log10 Kf of the 1:1 H-bond complex with 4-fluorophenol, by FTIR)” value is given as 0.3 log units. In the case of CC(C)(C)c1ccccc1, the “pK_BHX (log10 Kf of the 1:1 H-bond complex with 4-fluorophenol, by FTIR)” value is given as -0.32 log units. In the case of FC12CC3CC(C1)CC(F)(C3)C2, the “pK_BHX (log10 Kf of the 1:1 H-bond complex with 4-fluorophenol, by FTIR)” value is listed as 0.0 log units. For CCN(C=O)CC, the “pK_BHX (log10 Kf of the 1:1 H-bond complex with 4-fluorophenol, by FTIR)” value is given as 2.16 log units. In the case of O=C1c2ccccc2-c2ccccc21, the “pK_BHX (log10 Kf of the 1:1 H-bond complex with 4-fluorophenol, by FTIR)” value is given as 1.09 log units. In the case of CC(=O)c1ccc(C23CC4CC(CC(C4)C2)C3)cc1, the “pK_BHX (log10 Kf of the 1:1 H-bond complex with 4-fluorophenol, by FTIR)” value is listed as 1.3 log units. For CC(C)C(=O)N(C1CCCCC1)C1CCCCC1, the “pK_BHX (log10 Kf of the 1:1 H-bond complex with 4-fluorophenol, by FTIR)” value is listed as 2.24 log units. In the case of Cn1cncc1Br, the “pK_BHX (log10 Kf of the 1:1 H-bond complex with 4-fluorophenol, by FTIR)” value is listed as 2.22 log units. In the case of Cc1ccc(N(C)C)cc1, the “pK_BHX (log10 Kf of the 1:1 H-bond complex with 4-fluorophenol, by FTIR)” value is listed as 0.69 log units. For CC(C)O, the “pK_BHX (log10 Kf of the 1:1 H-bond complex with 4-fluorophenol, by FTIR)” value is listed as 1.06 log units. In the case of CC(C)(C)C(=O)N(C1CCCCC1)C1CCCCC1, the “pK_BHX (log10 Kf of the 1:1 H-bond complex with 4-fluorophenol, by FTIR)” value is listed as 2.06 log units. For CCOC(=O)c1ccccc1, the “pK_BHX (log10 Kf of the 1:1 H-bond complex with 4-fluorophenol, by FTIR)” value is given as 0.94 log units. For CC(=O)c1ccc(C(C)=O)cc1, the “pK_BHX (log10 Kf of the 1:1 H-bond complex with 4-fluorophenol, by FTIR)” value is listed as 0.92 log units. For O=C(C12CC3CC(CC(C3)C1)C2)C12CC3CC(CC(C3)C1)C2, the “pK_BHX (log10 Kf of the 1:1 H-bond complex with 4-fluorophenol, by FTIR)” value is listed as 1.17 log units. In the case of c1ccc2cnncc2c1, the “pK_BHX (log10 Kf of the 1:1 H-bond complex with 4-fluorophenol, by FTIR)” value is listed as 1.97 log units. In the case of CN(C)C=Nc1ccc(N(C)C)cc1, the “pK_BHX (log10 Kf of the 1:1 H-bond complex with 4-fluorophenol, by FTIR)” value is listed as 2.32 log units. In the case of CN=C(c1ccc(C)cc1)N(C)C, the “pK_BHX (log10 Kf of the 1:1 H-bond complex with 4-fluorophenol, by FTIR)” value is listed as 2.72 log units. For CNCCNC, the “pK_BHX (log10 Kf of the 1:1 H-bond complex with 4-fluorophenol, by FTIR)” value is listed as 2.29 log units. In the case of CC(=Nc1ccccc1)Nc1ccccc1, the “pK_BHX (log10 Kf of the 1:1 H-bond complex with 4-fluorophenol, by FTIR)” value is listed as 1.66 log units. For CN1CCCCC1=O, the “pK_BHX (log10 Kf of the 1:1 H-bond complex with 4-fluorophenol, by FTIR)” value is given as 2.6 log units. In the case of Cc1ccc(S(=O)c2ccc(C)cc2)cc1, the “pK_BHX (log10 Kf of the 1:1 H-bond complex with 4-fluorophenol, by FTIR)” value is listed as 2.21 log units. For BrC1CC1, the “pK_BHX (log10 Kf of the 1:1 H-bond complex with 4-fluorophenol, by FTIR)” value is given as -0.47 log units. In the case of Nc1ccccn1, the “pK_BHX (log10 Kf of the 1:1 H-bond complex with 4-fluorophenol, by FTIR)” value is given as 2.12 log units. In the case of COCOC, the “pK_BHX (log10 Kf of the 1:1 H-bond complex with 4-fluorophenol, by FTIR)” value is listed as 0.58 log units. In the case of CC(=O)c1cccc(C)c1, the “pK_BHX (log10 Kf of the 1:1 H-bond complex with 4-fluorophenol, by FTIR)” value is listed as 1.1 log units. For CCc1ccccn1, the “pK_BHX (log10 Kf of the 1:1 H-bond complex with 4-fluorophenol, by FTIR)” value is given as 1.94 log units. For Brc1ccccc1, the “pK_BHX (log10 Kf of the 1:1 H-bond complex with 4-fluorophenol, by FTIR)” value is given as -0.66 log units and -0.92 log units. For C1=COCCC1, the “pK_BHX (log10 Kf of the 1:1 H-bond complex with 4-fluorophenol, by FTIR)” value is given as 0.41 log units. For Brc1cccnc1, the “pK_BHX (log10 Kf of the 1:1 H-bond complex with 4-fluorophenol, by FTIR)” value is listed as 1.31 log units. For CCCCN, the “pK_BHX (log10 Kf of the 1:1 H-bond complex with 4-fluorophenol, by FTIR)” value is given as 2.19 log units. For CN(C)C=NC(C)(C)C, the “pK_BHX (log10 Kf of the 1:1 H-bond complex with 4-fluorophenol, by FTIR)” value is given as 2.41 log units. In the case of NCc1cccc(Cl)c1, the “pK_BHX (log10 Kf of the 1:1 H-bond complex with 4-fluorophenol, by FTIR)” value is listed as 1.55 log units. For C1COCOC1, the “pK_BHX (log10 Kf of the 1:1 H-bond complex with 4-fluorophenol, by FTIR)” value is given as 0.63 log units. For CCNC, the “pK_BHX (log10 Kf of the 1:1 H-bond complex with 4-fluorophenol, by FTIR)” value is given as 2.25 log units. In the case of N#CC1CCCC1, the “pK_BHX (log10 Kf of the 1:1 H-bond complex with 4-fluorophenol, by FTIR)” value is listed as 0.88 log units. In the case of CN(C)c1ccc(C=O)cc1, the “pK_BHX (log10 Kf of the 1:1 H-bond complex with 4-fluorophenol, by FTIR)” value is given as 1.53 log units. In the case of CN(C)S(C)(=O)=O, the “pK_BHX (log10 Kf of the 1:1 H-bond complex with 4-fluorophenol, by FTIR)” value is given as 1.0 log units. In the case of c1ccc2oncc2c1, the “pK_BHX (log10 Kf of the 1:1 H-bond complex with 4-fluorophenol, by FTIR)” value is listed as 0.68 log units. In the case of CN1CCN(C)C1=S, the “pK_BHX (log10 Kf of the 1:1 H-bond complex with 4-fluorophenol, by FTIR)” value is given as 1.32 log units. For C#CC(=O)OCC, the “pK_BHX (log10 Kf of the 1:1 H-bond complex with 4-fluorophenol, by FTIR)” value is given as 0.63 log units. For CCN(CC)C(=O)c1cccnc1, the “pK_BHX (log10 Kf of the 1:1 H-bond complex with 4-fluorophenol, by FTIR)” value is given as 1.98 log units and 1.63 log units. In the case of CCCC(=O)c1ccccc1, the “pK_BHX (log10 Kf of the 1:1 H-bond complex with 4-fluorophenol, by FTIR)” value is given as 1.04 log units. For CN(C)C=NCc1cccc(C(F)(F)F)c1, the “pK_BHX (log10 Kf of the 1:1 H-bond complex with 4-fluorophenol, by FTIR)” value is listed as 1.99 log units. For CN1CCCCCC1=O, the “pK_BHX (log10 Kf of the 1:1 H-bond complex with 4-fluorophenol, by FTIR)” value is given as 2.53 log units. In the case of CC1=CCCCC1, the “pK_BHX (log10 Kf of the 1:1 H-bond complex with 4-fluorophenol, by FTIR)” value is given as -0.74 log units. For Cn1ccccc1=O, the “pK_BHX (log10 Kf of the 1:1 H-bond complex with 4-fluorophenol, by FTIR)” value is given as 2.5 log units. In the case of O=c1cc(-c2ccccc2)oc2ccccc12, the “pK_BHX (log10 Kf of the 1:1 H-bond complex with 4-fluorophenol, by FTIR)” value is listed as 1.99 log units. In the case of COC(=O)OC, the “pK_BHX (log10 Kf of the 1:1 H-bond complex with 4-fluorophenol, by FTIR)” value is listed as 0.82 log units. For N#Cc1ccccc1F, the “pK_BHX (log10 Kf of the 1:1 H-bond complex with 4-fluorophenol, by FTIR)” value is listed as 0.64 log units.
